This note sets out measurements from US11008572B2, “Methods and compositions for modulating splicing” (SKYHAWK THERAPEUTICS, INC., priority 2017, dated 2021).

What all share (assay type): cell-based
One experiment has as its system SMN2^Δ7 mRNA. Nature of the experiment: SMN2 splicing assay, real-time quantitative PCR, SMA type I patient cells (GM03813). Particulars: Homo sapiens, 24 hours. As for the experimental part:
(§1) Various cells lines were treated with the SMSMs described herein. RNA was then isolated, cDNA synthesized, qPCR performed and the levels of various mRNA targets of the SMSMs were determined. In some instances, RNA was isolated, cDNA synthesized, qPCR performed and the levels of mRNA isoforms in the various cell samples were determined.
(§2) SMA type I patient cells (GM03813 (Coriell))
(§3) On the day of the experiment, a 96-well plate was seeded with the cell lines of interest. The cells were diluted with full growth media to a concentration of 2.0×10^5 cells/mL and 100 μL of cells were added to each well (20,000 cells per well). The cells were treated with a compound immediately after plating.
(§4) The compounds were then added to the cell plate using the HP compound dispenser. In the initial experiment, a top concentration of 10 μM and an 8 point 4-fold dilution scheme was used. The stock compounds were made at a concentration of 5 mM, and the DMSO concentration was set to 0.2%. DMSO was used to normalize all the compound-containing wells and the untreated cells.
(§5) The treated cells were incubated at 37° C. in a 5% CO2 incubator for the desired amount of time. Plates were placed in a plastic bag with a wet paper towel to prevent evaporation.
(§6) RNA was isolated using the Cells to CT kit (ThermoFisher, AM1728). The cells were washed once with 100 μL cold PBS. 50 μL of lysis buffer was added to each well/tube (49.5 μL lysis buffer+0.5 μL DNase I per well/tube). The lysis reaction was mixed and incubated at room temperature for 5 minutes. 5 μL of stop solution was added directly into each cell lysis reaction and mixed by pipetting up and down 5 times. The plates/tubes were incubated at room temperature for 2 minutes then placed on ice if the cDNA synthesis was to be performed immediately. Otherwise, the plates/tubes were stored at −80° C.
(§7) cDNA synthesis reactions were then performed. 40 μL RT master mix was added to PCR tubes or plate wells. 10 μL of RNA was added to each tube/well. The RT thermal cycler program was then run and tubes or plate wells were incubated at 37° C. for 1 hour, then at 95° C. for 5 minutes to deactivate the enzyme.
(§8) The qPCR was performed using a QuantStudio 6instrument (ThermoFisher) and the following cycling conditions and according to the tables below. All samples and standards were analyzed in triplicate. Cycle 1: 2 minutes at 50° C. Cycle 2: 10 minutes at 95′C. Cycle 3 (repeat 40 times): 15 seconds at 95° C., 1 minute at 60° C.
(§9) The determined SMN2^Δ7 and SMN2^FL quantities were then be used to determine the SMN2^Δ7:SMN2^FL ratio at the various compound concentrations. The PPIA quantities were used in the normalization to account of cell proliferation effects of the compounds.
(§10) An assay to measure the SMN2^FL mRNA and SMN2^Δ7 mRNA simultaneously in cell wells was performed. The RNA values were measured relative to DMSO control and also included a housekeeping gene, PPIA to ensure data was consistent. The mRNA values were measured after 24 hours of incubation with the SMSM compounds.
(§11) Additionally, to monitor expression levels of SMN2 splice variant using real-time quantitative PCR, SMA type I patient cells (GM03813 (Coriell)) were plated at 5,000 cells/well in 200 μl Dulbecco's modified Eagle's medium (DMEM) with GlutaMAX and 10% fetal bovine serum (FBS) (Life Technologies, Inc.) in 96-well plates, and incubated for 6 hours in a cell culture incubator. Cells were then treated with SMSMs at different concentrations (0.5% DMSO) in duplicate for 24 hours. After removal of the supernatant, cells were lysed in Cells-To-Ct lysis buffer (Life Technologies, Inc.) according to the manufacturer's recommendations. The mRNA levels of SMN2 FL, SMN2 A7 were quantified using Taqman-based RT-qPCR and SMN2-specific primers and probes. The SMN2 forward and reverse primers were each used at a final concentration of 0.4 μM. The SMN2 probe was used at a final concentration of 0.1 μM. […]

The next experiment relates to SMN2^FL mRNA. Described as above. Particulars: Homo sapiens, 24 hours. On the procedure:
as §1, §2, §3, §4, §5, §6, §7, §8, §9, §10, §11

Another experiment concerns A-673 cells. Nature of the experiment: Cell viability, crystal violet staining. To be noted: Homo sapiens; for IC50: A673, cell viability, read-out: A-673 IC50 (nM) Cell viability; for pIC50: A673, read-out: A-673 cell viability (IC50). The essentials:
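Readout is absorbance at 570 nm of crystal violet, taken up in 0.1 M sodium citrate in 50% ethanol after staining with 0.5% dye in 25% methanol. Plates held 5×10^3 cells per well, and compounds were added one day after seeding for 72 hours. Data are relative to vehicle, mean±SE.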

Broadly, the pIC50 is the negative decadic logarithm of the IC50, by convention in mol/L. A word on the pEC50: it is the EC50 on a negative log10 scale, so that one unit is a factor of ten. Higher therefore signals a low EC50. Usually IC50 stands for the point on the concentration scale where inhibition reaches its midpoint.

pEC50, pIC50: −log10 of the molar value. Read-outs that look alike come from different tables or passages of the source.

In turn, `CN(c1ccc(-c2ccc(-c3cn[nH]c3)cc2O)nn1)[C@@H]1C[C@H]2CC[C@@H](C1)N2` [compound 138, 2-(6-(((1R,3s,5S)-8-azabicyclo[3.2.1]octan-3-yl)(methyl)amino)pyridazin-3-yl)-5-(1H-pyrazol-4-yl)phenol] gave a pIC50 in the experiment on SMN2^Δ7 mRNA of 9.00. In addition, the negative logarithm of the EC50 (pEC50) in the experiment with SMN2^FL mRNA was 9.00. Also, the IC50 in the experiment with A-673 cells was in the range of 10 to 100 nM.
On to `CN(c1ccc(-c2ccc(-c3cn[nH]c3)cc2O)nn1)[C@H]1C[C@]2(C)CC[C@](C)(C1)N2` [compound 151, 2-(6-(((1R,3s,5S)-1,5-dimethyl-8-azabicyclo[3.2.1]octan-3-yl)(methyl)amino)pyridazin-3-yl)-5-(1H-pyrazol-4-yl)phenol], for which the values for the negative-log IC50 (pIC50) with SMN2^Δ7 mRNA and in the experiment with A-673 cells were 9.05 and not below 8.30, respectively. In the experiment on SMN2^FL mRNA, this compound had a pEC50 of 9.15. In addition, in the experiment on A-673 cells, the IC50 was less than 10 nM.
The like results for `CN(c1ccc(-c2ccc(-c3cn[nH]c3)cc2O)nn1)[C@@H]1C[C@H]2CCC[C@@H](C1)N2` [compound 160, 2-(6-(((1R,3s,5S)-9-azabicyclo[3.3.1]nonan-3-yl)(methyl)amino)pyridazin-3-yl)-5-(1H-pyrazol-4-yl)phenol] were, in that order, 9.15, not below 8.30, 9.22 and less than 10 nM.
